Data as given in US5089479A, “Adhesion of Mycoplasma pneumoniae and Mycoplasma hominus to sulfatide” (priority 1988, dated 1992).
Entries after “also recorded” stand apart in the source; their conditions may differ.

What was measured:
[1] = target: M. pneumoniae binding to sulfatide; test: Inhibition of M. pneumoniae binding to sulfatide adsorbed on plastic; design: species or system Mycoplasma pneumoniae strain M129; settings: for inhibition of binding to sulfatide (in words): sulfatide adsorbed on plastic
Method: Virulent M. pneumoniae strain M129, passage 5-15, were grown and metabolically labelled with [^3 H]palmitic acid, 12-17 Ci/mole, as described by Chandler et al. in Infect. Immun. 37: 942, 1982. The organisms were passed four times through a 26 gauge needle and suspended to approximately 10^7 cpm/ml of degassed RPMI 1640 medium containing 1% bovine serum albumin and 25 mM HEPES, pH 7.3.
The binding of M. pneumoniae to purified glycolipids immobilized in microtiter plates was measured as described by Krivan et al. in Proc. Natl. Acad. Sci., op. cit. Purified glycolipids were serially diluted in 25 μl of methanol containing 0.1 μg each of the auxiliary lipids cholesterol and phosphatidylcholine. After the solutions were dried by evaporation, the wells were filled with TBS-BSA, emptied after one hour, rinsed with RPMI-BSA, and incubated with 25 μl of [^3 H]-M. pneumoniae, approximately 10^7 cpm/ml RPMI-BSA. After incubation for two hours at 37° C., unless otherwise stated, the wells were washed five times with saline and bound M. pneumoniae was quantified by scintillation counting in Aquasol. For inhibition studies, various polysaccharides were serially diluted in […] of [^3 H]-M. pneumoniae.
To obtain the results shown in FIG. 4, polysaccharides were serially diluted in 25 μl of RPMI-BSA in microtiter wells previously coated with 1 μg of purified sulfatide. Binding was determined after incubation of two hours at 37° C. with 25 μl of [^3 H]-M. pneumoniae with the indicated concentration of dextran ( .circle. ) or dextran sulfate.

[2] = target: M. pneumoniae binding to laminin; test: Inhibition of M. pneumoniae binding to laminin adsorbed on plastic; design: species or system Mycoplasma pneumoniae strain M129; settings: laminin adsorbed on plastic
Method: (§1) Glycoproteins dissolved in 0.01 M sodium phosphate buffer, pH 7.4, containing 150 mM NaCl, 1 mM CaCl2, and 0.01% NaN3 were adsorbed onto plastic polyvinylchloride […] microtiter plates by incubation for 16 hours at 4° C. The unbound proteins were removed, and the wells were filled with tris-BSA and incubated for 30 minutes at room temperature. The wells were rinsed with RPMI1640 containing 25 mM HEPES, pH 7.3, and 1% bovine serum albumin. M. pneumoniae strain M129 labelled with [^3 H]-palmitate were dispersed in RPMI-BSA by passing four times through a 26 gauge needle, and 50 μl of the suspension was applied to the wells. After incubation for 60 minutes at 37° C., the wells were washed five times with saline and the labelled M. pneumoniae bound to the proteins were quantified by scintillation counting in Aquasol.
For inhibition studies, sugars in 25 μl of RPMI-BSA were added to wells coated with 10 μg/ml laminin followed by 25 μl of [^3 H]-M. pneumoniae. Binding was determined to both laminin-coated and uncoated wells in triplicate at each inhibitor concentration and in the absence of inhibitor. In some experiments, the adsorbed proteins were pretreated with neuraminidase. After adsorption of the proteins and incubation in tris-BSA, the wells were rinsed three times with 50 mM sodium acetate, pH 5.5, containing 150 mM NaCl, 5 mM CaCl2, 1 mg/ml bovine serum albumin, and 1 mM phenylmethanesulfonyl fluoride. The wells were incubated with 0.05 units/ml neuraminidase in the same buffer or with buffer without enzyme overnight at 20° C. The wells were rinsed three times with tris-BSA, and M. pneumoniae binding was determined as described above.

[3] = tested on: M. pneumoniae adhesion to WiDr cells; test: Inhibition of M. pneumoniae adhesion to WiDr human colon adenocarcinoma cell monolayers; assay type: cell-based; settings: WiDr cells
Method: (§2) Adhesion of [^3 H]-M. pneumoniae to cells on glass covered slips was measured by a modification of a method previously described by Chandler et al., Infect. Immun., op. cit. WiDr human colon adenocarcinoma, ATCC CCL 218 was grown in Eagle's minimal essential medium with 10% fetal calf serum in a 5% CO2 atmosphere at 37° C. The cells were removed with trypsin and plated on 12 mm round glass coverslips in 24-well tissue culture plates and grown for three days. Control coverslips were preincubated in medium without cells. The coverslips were washed in serum-free medium, then incubated in RPMI-BSA for fifteen minutes. The medium was removed and labelled M. pneumoniae suspended in 0.5 ml of RPMI-BSA were added to each well. The plates were incubated on a rocking table for 60 minutes at 37° C. The coverslips were washed by dipping in saline six times, and the bound radioactive bacteria were determined by scintillation counting. For inhibition studies, the inhibitors were added to M. pneumoniae prior to adding the bacteria to the coverslips.
Because virulent strains of M. pneumoniae adhere to mammalian cells, monolayers of WiDr cells were used to determine if dextran sulfate inhibits adhesion of the organism. [^3 H] -labelled M. pneumoniae was incubated with WiDr cell monolayers attached to coverslips in triplicate with an without dextran sulfate, as shown in Table II. […] In each experiment, 10 μg/ml dextran sulfate inhibited more than 1 μg/ml, but 100 μg/ml dextran sulfate caused no further inhibition. Thus, maximal inhibition was obtained with approximately 10 μg/ml of dextran sulfate. Similar results were obtained with MRC5 lung fibroblasts where in three experiments a mean of 47% of M. pneumoniae adhesion was inhibited by dextran sulfate.
(§3) Adhesion of labelled M. pneumoniae to WiDr cells on glass cover slips was determined as described previously. For inhibition studies, dextran sulfate and 3'-sialyllactose were dissolved in RPMI-BSA and the pH was adjusted to 7.4 with NaOH. The inhibitors were added to wells containing washed cover slips with attached WiDr cells or blank cover slips preincubated in medium or tris-BSA. Labelled M. pneumoniae were added immediately and incubated with slow rocking for sixty minutes at 37° C. After the coverslips were washed by dipping six times in saline, bound M. pneumoniae were determined by scintillation counting in Aquasol. […] After washing to remove the unbound organisms, the bound mycoplasma were determined by scintillation counting. Binding to uncoated wells was 3% of the applied radioactivity.
Adhesion of [^3 H]-M. pneumoniae to WiDr cells growing on 13 mm glass cover slips was determined as described above. Inhibition by dextran sulfate or 3'-sialyllactose at the indicated concentrations was calculated relative to control binding determined in RPMI/BSA without inhibitors. The results are presented as percent inhibition (mean±S.D. n=4 with n=8 for determination of control binding without inhibitor).

[4] = tested on: M. pneumoniae adhesion to MRC5 lung fibroblasts; test: Inhibition of M. pneumoniae adhesion to MRC5 lung fibroblasts; assay type: cell-based, human; settings: mean of three experiments
Method: as §2
Because virulent strains of M. pneumoniae adhere to mammalian cells, monolayers of WiDr cells were used to determine if dextran sulfate inhibits adhesion of the organism. [^3 H] -labelled M. pneumoniae was incubated with WiDr cell monolayers attached to coverslips in triplicate with an without dextran sulfate, as shown in Table II. […]

[5] = tested on: M. hominus adhesion to human colon adenocarcinoma cells; test: Inhibition of M. hominus adhesion to cultured human colon adenocarcinoma cells; assay type: cell-based
[6] = tested on: M. pneumoniae adhesion to coverslips; test: Inhibition of nonspecific adhesion of M. pneumoniae to coverslips without cells; assay type: binding, Mycoplasma pneumoniae strain M129; settings: coverslips preincubated in medium containing fetal calf serum
Method: as §2, §3

[7] = tested on: M. hominus binding to sulfatide; test: Inhibition of M. hominus binding to purified sulfatide; design: species or system Mycoplasma hominus
[8] = tested on: erythrocyte adhesion to M. pneumoniae; settings: relative to fetuin; Loomes et al.; cited from earlier work
[9] = tested on: M. pneumoniae; test: M. pneumoniae adhesion to immobilized glycoproteins adsorbed on plastic; assay type: binding, Mycoplasma pneumoniae strain M129; settings: for M. pneumoniae adhesion to immobilized glycoprotein (in words): adsorbed on plastic; for Relative binding activity: relative to fetuin = 1.0, from amount for half maximal binding, mean of 2 or 3 experiments
Method: as §1, with “Aquasol. […]” for “Aquasol.”

[10] = tested on: monoclonal antibody My-28; test: Binding of monoclonal antibody My-28 to immobilized proteins after neuraminidase; settings: neuraminidase-treated, adsorbed on plastic
Method: Binding of monoclonal antibody My-28 to the immobilized proteins before or after digestion with neuraminidase was determined using a 1:1000 dilution of ascites fluid in tris-BSA. After incubation for two hours at room temperature, the wells were washed three times with tris-BSA. Bound antibody was detected using goat anti-mouse IgM labelled with ^125 I by the Iodogen method.

dextran sulfate
concentration inhibiting binding to sulfatide by 50% ([1]; 1 μg sulfatide, 37° C., 2 hours): 0.4 µg/mL | inhibition of binding to sulfatide at 1 μg/ml (in words) ([1]; 1 μg/ml): completely abolished binding | inhibition of binding to sulfatide (in words) [1]: potent inhibitor; also recorded: completely inhibits binding | inhibition of binding to sulfatide (in words) ([1]; listed as Dextran sulfate): inhibits M. pneumoniae binding to sulfatide | I.D.50, substrate laminin [2]: > 200 µg/mL | inhibition of binding to laminin (in words) [2]: no effect | inhibition of binding to laminin (in words) ([2]; listed as Dextran sulfate): does not inhibit attachment on laminin | concentration giving maximal inhibition of adhesion [3]: approximately 10 μg/ml | inhibition of adhesion to WiDr cells (in words) [3]: partially inhibit; also recorded: only partially inhibited; also recorded: partially inhibits adhesion; also recorded: partial inhibition | inhibition of adhesion to WiDr cells (in words) ([3]; listed as Dextran sulfate): inhibited adhesion in all three experiments | inhibition of M. pneumoniae adhesion [4]: 47% | inhibition of M. hominus adhesion (in words) [5]: partially inhibits adhesion | inhibition of non-specific adhesion to coverslips (in words) [6]: not by dextran sulfate | inhibition of M. hominus binding to sulfatide (in words) [7]: completely inhibits binding

Human α1 -acid glycoprotein: glycoprotein
inhibition of erythrocyte adhesion to M. pneumoniae (in words) [8]: inhibit erythrocyte adhesion to M. pneumoniae better than fetuin | M. pneumoniae adhesion to immobilized glycoprotein (in words) [9]: neither protein binds M. pneumoniae well | M. pneumoniae adhesion to immobilized glycoprotein (in words) ([9]; listed as alpha-1-acid glycoprotein): weakly active | Relative binding activity [9]: 0.03

B1: Human type MM glycophorin: glycoprotein (protein, UniProt P02724 20-150, looked up)
Glycophorin-A: LSTTEVAMHTSTSSSVTKSYISSQTNDTHKRDTYAATPRAHEVSEISVRTVYPPEEETGERVQLAHHFSEPEITLIIFGVMAGVIGTILLISYGIRRLIKKSPSDVKPLPSPDTDVPLSSVEIENPETSDQ
modifications: MM blood type
notes: glycoprotein
inhibition of erythrocyte adhesion to M. pneumoniae (in words) [8]: inhibit erythrocyte adhesion to M. pneumoniae better than fetuin | M. pneumoniae adhesion to immobilized glycoprotein (in words) ([9]; listed as Glycophorin): weakly active | M. pneumoniae adhesion to immobilized glycoprotein (in words) ([9]; listed as glycophorin): neither protein binds M. pneumoniae well | Relative binding activity [9]: 0.06 | My-28 antibody binding after neuraminidase digestion (in words) [10]: about ten-fold less
